Measurements: patent US20260184712A1, “Heterocyclic Compounds as ENT Inhibitors and Compounds for Use in the Treatment of Cancers” (iTeos Belgium SA, priority 2022, published 2026)

What follows are molecules tested against T1, human ENT1 (Homo sapiens, UniProt Q99808) (assay: ENT1 binding assay (competition with Sahenta-DY647 on JAR cells)). Conditions: Binding Assay IC50, competition with SAHENTA-DY647 binding; IC50 categorized.
T1 construct: JAR cells expressing ENT1 were purchased from ATCC; host or cells: JAR cells
T1 sequence (Q99808 1-456): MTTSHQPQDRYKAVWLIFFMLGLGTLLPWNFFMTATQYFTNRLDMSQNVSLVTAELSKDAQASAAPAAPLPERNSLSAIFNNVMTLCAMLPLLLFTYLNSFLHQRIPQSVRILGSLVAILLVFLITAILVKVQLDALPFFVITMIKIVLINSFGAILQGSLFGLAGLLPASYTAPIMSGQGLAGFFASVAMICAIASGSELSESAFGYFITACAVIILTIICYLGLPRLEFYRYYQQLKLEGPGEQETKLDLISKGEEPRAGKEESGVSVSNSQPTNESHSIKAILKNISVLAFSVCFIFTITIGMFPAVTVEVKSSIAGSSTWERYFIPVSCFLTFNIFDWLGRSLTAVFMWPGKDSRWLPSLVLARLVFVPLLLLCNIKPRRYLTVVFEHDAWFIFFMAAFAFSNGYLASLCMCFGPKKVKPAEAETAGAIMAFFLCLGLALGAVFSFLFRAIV
Procedure: Compounds of the present disclosure were assayed to show ability to bind to human ENT1. The assay is a competition between a compound of interest and Sahenta-DY647, an ENT1 inhibitor that emits fluorescence (Ex=630 nm, Em=670 nm). By measuring the fluorescence at the end of the assay, one can assess the binding potency of the compounds tested. The compounds of the present disclosure were tested and compared to known ENT inhibitors, dilazep and NBMPR:
JAR cells expressing ENT1 were purchased from ATCC® (HTB-144TM). Cells were cultured in RPMI 1640 medium (LONZA®, #BE12-702F/U1) supplemented with 10% FBS (GIBCO®, #10270-106), 10 mM Hepes (LONZA®, #BE17-737E), 1 mM Sodium Pyruvate (LONZA®, #BE13-115E), and 2% Penicillin/Streptomycin (LONZA®, #DE17-603E) at 37° C. and 5% CO2.
The assay was conducted with the following buffer on the day of the assay: HBSS (LONZA®, #LO-527F) supplemented with 10 mM Hepes (LONZA®, #BE17-737E) and 0.1% BSA (Miltenyi®, #130-091-376).
JAR cells were resuspended in the described buffer. The compounds of interest and Sahenta-DY647 were diluted 200× with the described buffer.
A total of 50,000 cells were pre-incubated for 30 min at 4° C. with the compounds of the present disclosure before adding the corresponding amount of Sahenta-DY647 (100 nM) to the minimal concentration at Bmax and incubating for an additional 30 min at 4° C. The total volume of the reaction was 100 μL (50 μL of cells, 25 μL of the compounds of the present disclosure, and 25 μL of Sahenta-DY647) in a U-bottom 96 well plate (Greiner®, #650-180). The plates were washed 2× by centrifugation (4 min, 400 rcf at 4° C.) in the same buffer. Cells were re-suspended in 70 μL of the buffer and 50 μL was transferred to a Black 384 Optiplate (PerkinElmer®, #6007279). Fluorescence (Ex=630 nm, Em=670 nm) was acquired on a Spectramax i3x (Molecular Devices®).
Dose-response data from the compounds were analyzed with Graphpad Prism 9.1.1@software, using nonlinear regression applied to a sigmoidal dose-response model and the following equation:
Y=Bottom+(Top-Bottom)/(1+10^((LogIC50−X)*HillSlope)), with a shared bottom and top between the test reagent and dipyridamole.
Data from multiple experiments were compiled by taking the average pIC50 value for the reagent in question±the standard deviation (s.d.) and expressing it as an average IC50 value in nM.
The inhibitory effect of the test compound was expressed as a percentage of the inhibition of SAHENTA-DY647 binding.

Row | Structure (SMILES) | IC50 [µM]
1 | C[C@H]1O[C@@H](n2cnc3c(COc4ccc(C#N)cc4)ncnc32)[C@H](O)[C@@H]1O [Compound 280] | > 0.5

Same assay, conditions: competition with SAHENTA-DY647 binding; IC50 categorized; read-out: Binding Assay IC50

Row | IC50 [µM] | Structure (SMILES)
2 | > 0.5 | C[C@H]1O[C@@H](n2cnc3c(NCc4ccc(OC5CCOCC5)cc4)ncnc32)[C@H](O)[C@@H]1O [Compound 389]
3 | < 0.001 | C[C@H]1O[C@@H](n2c(N[C@H]3CC[C@H](O)CC3)nc3c(OCc4ccc([N+](=O)[O-])cc4)ncnc32)[C@H](O)[C@@H]1O [Compound 57]
4 | > 0.5 | CN(CCO)C(=O)[C@H]1O[C@@H](n2cnc3c(OCc4ccc([N+](=O)[O-])cc4)ncnc32)[C@H](O)[C@@H]1O [Compound 292]
5 | > 0.5 | C[C@H]1O[C@@H](n2cnc3c(NS(=O)(=O)Cc4ccc([N+](=O)[O-])cc4)ncnc32)[C@H](O)[C@@H]1O [Compound 407]
6 | 0.001 to 0.02 | C[C@H]1O[C@@H](n2c(NCCOc3ccccc3)nc3c(OCc4ccc(OC(F)F)cc4)ncnc32)[C@H](O)[C@@H]1O [Compound 7]
7 | 0.02 to 0.5 | CNc1nc2c(OCc3ccc([N+](=O)[O-])cc3)ncnc2n1[C@@H]1O[C@H](C)[C@@H](O)[C@H]1O [Compound 19]
8 | > 0.5 | C[C@H]1O[C@@H](n2cnc3c(C(=O)N4CCC(c5ccc([N+](=O)[O-])cc5)C4)ncnc32)[C@H](O)[C@@H]1O (some centres unmarked) [Compound 419]
9 | 0.02 to 0.5 | C[C@H]1O[C@@H](n2cnc3c(OCc4cc(Cl)cc(Cl)c4)ncnc32)[C@H](O)[C@@H]1O [Compound 217]
10 | > 0.5 | C[C@H]1O[C@@H](n2cnc3c(C(=O)NCc4ccc(Cl)cc4F)ncnc32)[C@H](O)[C@@H]1O [Compound 330]
11 | > 0.5 | C[C@H]1O[C@@H](n2cnc3c(OCCc4cnc(C(F)F)nc4)ncnc32)[C@H](O)[C@@H]1O [Compound 404]
12 | 0.02 to 0.5 | C[C@H]1O[C@@H](n2c(NC3CCC(O)C3)nc3c(OCc4ccc(Cl)cc4)ncnc32)[C@H](O)[C@@H]1O (some centres unmarked) [Compound 101]
13 | 0.001 to 0.02 | C[C@H]1O[C@@H](n2c(N[C@H]3CC[C@@](C)(O)CC3)nc3c(OCc4ccc(C(F)(F)F)cc4)ncnc32)[C@H](O)[C@@H]1O [Compound 126]
14 | > 0.5 | O=[N+]([O-])c1ccc(COc2ncnc3c2ncn3[C@@H]2O[C@H](COCCN3CCCC3)[C@@H](O)[C@H]2O)cc1 [Compound 240]
15 | > 0.5 | C[C@H]1O[C@@H](n2cnc3c(NCc4ccc(C(=O)N(C)C)cc4)ncnc32)[C@H](O)[C@@H]1O [Compound 370]
16 | > 0.5 | C[C@H]1O[C@@H](n2cnc3c(C(=O)NCc4ccc(OC(F)(F)F)cc4)ncnc32)[C@H](O)[C@@H]1O [Compound 295]
17 | > 0.5 | NC(=O)[C@H]1O[C@@H](n2cnc3c(SCc4ccc([N+](=O)[O-])cc4)ncnc32)[C@H](O)[C@@H]1O [Compound 243]
18 | > 0.5 | C[C@H]1O[C@@H](n2cnc3c(OCCc4cnc(C#N)nc4)ncnc32)[C@H](O)[C@@H]1O [Compound 347]
19 | 0.001 to 0.02 | C[C@H]1O[C@@H](n2c(N[C@H]3CC[C@@](C)(O)CC3)nc3c(OCc4ccc(OC(F)F)cc4)ncnc32)[C@H](O)[C@@H]1O [Compound 122]
20 | 0.02 to 0.5 | C[C@H]1O[C@@H](n2c(NCC3COC3)nc3c(OCc4ccc(C#N)cc4)ncnc32)[C@H](O)[C@@H]1O [Compound 107]
21 | > 0.5 | CCOc1ccc(CNC(=O)c2ncnc3c2ncn3[C@@H]2O[C@H](C)[C@@H](O)[C@H]2O)cc1 [Compound 350]
22 | > 0.5 | C[C@H]1O[C@@H](n2cnc3c(OCc4ccc5cnn(C)c5c4)ncnc32)[C@H](O)[C@@H]1O [Compound 333]
23 | 0.001 to 0.02 | CC1OC(n2c(NC3CCC(C)(O)CC3)nc3c(OCc4ccc([N+](=O)[O-])cc4)ncnc32)C(O)C1O (single isomer, unassigned) [Compound 118]
24 | 0.02 to 0.5 | C[C@H]1O[C@@H](n2c(-c3cnn(C)c3)nc3c(OCc4ccc([N+](=O)[O-])cc4)ncnc32)[C@H](O)[C@@H]1O [Compound 13]

Row | IC50 [µM] | Structure (SMILES)
25 | > 0.5 | C[C@H]1O[C@@H](n2cnc3c(N4CCC(c5ccc([N+](=O)[O-])cc5)C4)ncnc32)[C@H](O)[C@@H]1O (some centres unmarked) [Compound 315]
26 | > 0.5 | C[C@H]1O[C@@H](n2cnc3c(OCc4cscn4)ncnc32)[C@H](O)[C@@H]1O [Compound 321]
27 | > 0.5 | C[C@H]1O[C@@H](n2cnc3c(COc4ccc(OCF)cc4)ncnc32)[C@H](O)[C@@H]1O [Compound 296]
28 | > 0.5 | C[C@H]1O[C@@H](n2cnc3c(OCc4ccc(-n5cncn5)cc4)ncnc32)[C@H](O)[C@@H]1O [Compound 314]
29 | 0.001 to 0.02 | Cc1ccc(COc2ncnc3c2nc(NC2CCCC2)n3[C@@H]2O[C@H](C)[C@@H](O)[C@H]2O)cc1 [Compound 90]
30 | > 0.5 | C[C@H]1O[C@@H](n2cnc3c(SCc4cnc(C(F)(F)F)nc4)ncnc32)[C@H](O)[C@@H]1O [Compound 311]
31 | > 0.5 | C[C@H]1O[C@@H](n2cnc3c(OCc4ccc(-n5cccn5)cc4)ncnc32)[C@H](O)[C@@H]1O [Compound 328]
32 | > 0.5 | C[C@H]1O[C@@H](n2cnc3c(SCc4ccc(C(=O)O)cc4)ncnc32)[C@H](O)[C@@H]1O [Compound 409]
33 | > 0.5 | C[C@H]1O[C@@H](n2cnc3c(OCc4ccc5c(c4)OCCO5)ncnc32)[C@H](O)[C@@H]1O [Compound 363]
34 | > 0.5 | C[C@H]1O[C@@H](n2cnc3c(NCc4ccc(N5CCCC5=O)cc4)ncnc32)[C@H](O)[C@@H]1O [Compound 387]
35 | 0.02 to 0.5 | C[C@H]1O[C@@H](n2c(NC3CC3)nc3c(N4CCc5ccc(C#N)cc5C4)ncnc32)[C@H](O)[C@@H]1O [Compound 164]
36 | 0.02 to 0.5 | C[C@H]1O[C@@H](n2cnc3c(OCc4ccc(C5CC5)cc4)ncnc32)[C@H](O)[C@@H]1O [Compound 206]
37 | > 0.5 | C[C@H]1O[C@@H](n2cnc3c(NCc4ccccc4C(N)=O)ncnc32)[C@H](O)[C@@H]1O [Compound 374]
38 | > 0.5 | C[C@H]1O[C@@H](n2cnc3c(SCc4nc(-c5ccc(F)cc5)no4)ncnc32)[C@H](O)[C@@H]1O [Compound 395]
39 | > 0.5 | COc1nc(OCc2ccc([N+](=O)[O-])cc2)c2ncn([C@@H]3O[C@H](C)[C@@H](O)[C@H]3O)c2n1 [Compound 283]
40 | 0.02 to 0.5 | C[C@H]1O[C@@H](n2c(NCCN3CCCC3)nc3c(OCc4ccc([N+](=O)[O-])cc4)ncnc32)[C@H](O)[C@@H]1O [Compound 32]
41 | > 0.5 | C[C@H]1O[C@@H](n2cnc3c(SCc4cccc(S(N)(=O)=O)c4)ncnc32)[C@H](O)[C@@H]1O [Compound 273]
42 | > 0.5 | C[C@H]1O[C@@H](n2cnc3c(OCCc4ccc([S+](C)[O-])cc4)ncnc32)[C@H](O)[C@@H]1O (some centres unmarked) [Compound 408]
43 | 0.02 to 0.5 | O=[N+]([O-])c1ccc(CSc2ncnc3c2ncn3[C@@H]2O[C@H](CO)C[C@H]2O)cc1 [Compound 216]
44 | > 0.5 | C[C@H]1O[C@@H](n2cnc3c(OCc4c(F)cc(F)cc4F)ncnc32)[C@H](O)[C@@H]1O [Compound 260]
45 | 0.001 to 0.02 | C[C@H]1O[C@@H](n2c(N[C@H]3CC[C@](C)(O)CC3)nc3c(N4CCc5ccc([N+](=O)[O-])cc5C4)ncnc32)[C@H](O)[C@@H]1O [Compound 144]
46 | > 0.5 | C[C@H]1O[C@@H](n2cnc3c(OCCc4cc(F)c(C#N)c(F)c4)ncnc32)[C@H](O)[C@@H]1O [Compound 223]
47 | > 0.5 | C[C@H]1O[C@@H](n2cnc3c(OCc4ccc(-c5ccncc5)cc4)ncnc32)[C@H](O)[C@@H]1O [Compound 364]
